Assay results taken from PubChem BioAssay (NCI).
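Briefly, cells in 96-well plates were exposed to five compound concentrations for 48 h, and endpoints were estimated by linear interpolation. TGI marks complete inhibition of growth.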

Legend:
Assay in all cases: NCI anticancer screen, dose series, 48 h
[1] = system: SK-MEL-2 melanoma
[2] = system: KM12 colon
[3] = system: TK-10 renal
[4] = system: COLO 205 colon
[5] = system: LOX IMVI melanoma
[6] = system: SNB-75 CNS
[7] = system: NCI-H460 lung
[8] = system: RPMI-8226 leukemia
[9] = system: HS 578T breast
[10] = system: PC-3 prostate
[11] = system: DU-145 prostate
[12] = system: OVCAR-3 ovarian
[13] = system: EKVX NSCLC
[14] = system: MCF7 breast
[15] = system: SW-620 colon
[16] = system: HL-60(TB) leukemia
[17] = system: NCI-H226 lung
[18] = system: HCT-116 colon
[19] = system: HT29 colon
[20] = system: OVCAR-8 ovarian
[21] = system: IGROV1 ovarian
[22] = system: SF-295 CNS
[23] = system: SF-268 CNS
[24] = system: M14 melanoma
[25] = system: A549 NSCLC
[26] = system: UACC-62 melanoma
[27] = system: MOLT-4 leukemia
[28] = system: SF-539 CNS
[29] = system: MDA-MB-435
[30] = system: HOP-62 NSCLC
[31] = system: NCI-H522 lung
[32] = system: MALME-3M melanoma
[33] = system: SK-MEL-5 melanoma
[34] = system: U251 CNS
[35] = system: K-562 leukemia
[36] = system: SN12C renal
[37] = system: T-47D breast
[38] = system: UO-31 renal
[39] = system: NCI/ADR-RES ovarian
[40] = system: HCT-15 colon
[41] = system: SR leukemia
[42] = system: SK-MEL-28 melanoma
[43] = system: ACHN renal
[44] = system: 786-0 renal
[45] = system: UACC-257 melanoma
[46] = system: HOP-92 NSCLC
[47] = system: MDA-N
[48] = system: A498 renal
[49] = system: CCRF-CEM leukemia
[50] = system: CAKI-1 renal
[51] = system: MDA-MB-231 breast
[52] = system: HCC-2998 colon
[53] = system: OVCAR-4 ovarian
[54] = system: OVCAR-5 ovarian
[55] = system: NCI-H23 lung
[56] = system: SNB-19 CNS
[57] = system: SK-OV-3 ovarian
[58] = system: RXF 393 renal
[59] = system: BT-549 breast

## CCN(CC)CC1CCCCN1CC(=O)N1c2ccccc2NC(=O)c2ccccc21 (stereo unspecified)
[1]
  TGI: > 100 µM
[2]
  TGI: > 100 µM
[3]
  TGI: > 100 µM
[4]
  TGI: > 100 µM
[5]
  TGI: > 100 µM
[6]
  TGI: > 100 µM
[7]
  TGI: > 100 µM
[8]
  TGI: > 100 µM
[9]
  TGI: > 100 µM
[10]
  TGI: > 100 µM
[11]
  TGI: > 100 µM
[12]
  TGI: > 100 µM
[13]
  TGI: > 100 µM
[14]
  TGI: > 100 µM
[15]
  TGI: > 100 µM
[16]
  TGI: > 100 µM
[17]
  TGI: > 100 µM
[18]
  TGI: > 100 µM
[19]
  TGI: > 100 µM
[20]
  TGI: > 100 µM
[21]
  TGI: > 100 µM
[22]
  TGI: > 100 µM
[23]
  TGI: > 100 µM
[24]
  TGI: > 100 µM
[25]
  TGI: > 100 µM
[26]
  TGI: > 100 µM
[27]
  TGI: > 100 µM
[28]
  TGI: > 100 µM
[29]
  TGI: > 100 µM
[30]
  TGI: > 100 µM
[31]
  TGI: > 100 µM
[32]
  TGI: > 100 µM
[33]
  TGI: > 100 µM
[34]
  TGI: > 100 µM
[35]
  TGI: > 100 µM
[36]
  TGI: > 100 µM
[37]
  TGI: > 100 µM
[38]
  TGI: 44.5 µM
[39]
  TGI: > 100 µM
[40]
  TGI: > 100 µM
[41]
  TGI: > 100 µM
[42]
  TGI: > 100 µM
[43]
  TGI: > 100 µM
[44]
  TGI: > 100 µM
[45]
  TGI: > 100 µM
[46]
  TGI: > 100 µM
[47]
  TGI: > 100 µM
[48]
  TGI: > 100 µM
[49]
  TGI: > 100 µM
[50]
  TGI: > 100 µM
[51]
  TGI: > 100 µM
[52]
  TGI: > 100 µM
[53]
  TGI: > 100 µM
[54]
  TGI: > 100 µM
[55]
  TGI: > 100 µM
[56]
  TGI: > 100 µM
[57]
  TGI: > 100 µM
[58]
  TGI: > 100 µM

## C(CCCCc1nnc(N2CCOCC2)o1)CCCc1nnc(N2CCOCC2)o1
[1]
  TGI: > 100 µM
[2]
  TGI: > 100 µM
[3]
  TGI: > 100 µM
[4]
  TGI: > 100 µM
[5]
  TGI: > 100 µM
[6]
  TGI: > 100 µM
[7]
  TGI: > 100 µM
[10]
  TGI: > 100 µM
[11]
  TGI: > 100 µM
[12]
  TGI: > 100 µM
[13]
  TGI: > 100 µM
[14]
  TGI: > 100 µM
[15]
  TGI: > 100 µM
[16]
  TGI: > 100 µM
[17]
  TGI: > 100 µM
[18]
  TGI: > 100 µM
[19]
  TGI: > 100 µM
[20]
  TGI: > 100 µM
[21]
  TGI: > 100 µM
[22]
  TGI: > 100 µM
[59]
  TGI: > 100 µM
[24]
  TGI: > 100 µM
[25]
  TGI: > 100 µM
[27]
  TGI: > 100 µM
[28]
  TGI: > 100 µM
[29]
  TGI: > 100 µM
[30]
  TGI: > 100 µM
[33]
  TGI: > 100 µM
[34]
  TGI: > 100 µM
[35]
  TGI: > 100 µM
[36]
  TGI: > 100 µM
[38]
  TGI: > 100 µM
[39]
  TGI: > 100 µM
[40]
  TGI: > 100 µM
[42]
  TGI: > 100 µM
[43]
  TGI: > 100 µM
[44]
  TGI: > 100 µM
[45]
  TGI: > 100 µM
[46]
  TGI: > 100 µM
[47]
  TGI: > 100 µM
[48]
  TGI: > 100 µM
[49]
  TGI: > 100 µM
[50]
  TGI: > 100 µM
[51]
  TGI: > 100 µM
[53]
  TGI: > 100 µM
[54]
  TGI: > 100 µM
[55]
  TGI: > 100 µM
[56]
  TGI: > 100 µM
[57]
  TGI: > 100 µM
[58]
  TGI: > 100 µM

## COc1ccc(Cc2c(-c3ccc(C)cc3)n[nH]c(=O)c2C2C(=O)N(c3ccccc3)N=C2c2ccccc2)cc1 (stereo unspecified)
[1]
  TGI: 52.5 µM
[2]
  TGI: 57.1 µM
[3]
  TGI: 87.2 µM
[4]
  TGI: 40.3 µM
[5]
  TGI: 46.6 µM
[6]
  TGI: 81.3 µM
[7]
  TGI: > 89.3 µM
[8]
  TGI: 80.3 µM
[9]
  TGI: 82.9 µM
[10]
  TGI: > 91.8 µM
[11]
  TGI: > 100 µM
[12]
  TGI: 45.8 µM
[13]
  TGI: 83.1 µM
[14]
  TGI: > 91.3 µM
[15]
  TGI: > 100 µM
[16]
  TGI: 67.6 µM
[17]
  TGI: 81.9 µM
[18]
  TGI: 46.4 µM
[19]
  TGI: > 100 µM
[20]
  TGI: > 96.6 µM
[21]
  TGI: 85.1 µM
[22]
  TGI: 60.8 µM
[23]
  TGI: > 100 µM
[24]
  TGI: 81.8 µM
[25]
  TGI: 84.3 µM
[26]
  TGI: 40.4 µM
[27]
  TGI: > 67.7 µM
[28]
  TGI: 56.1 µM
[29]
  TGI: 45 µM
[30]
  TGI: > 100 µM
[31]
  TGI: > 100 µM
[32]
  TGI: 65.2 µM
[33]
  TGI: 38.9 µM
[34]
  TGI: > 100 µM
[35]
  TGI: > 76.6 µM
[36]
  TGI: > 95.6 µM
[37]
  TGI: > 100 µM
[38]
  TGI: > 100 µM
[39]
  TGI: 58 µM
[40]
  TGI: > 100 µM
[41]
  TGI: > 79.3 µM
[42]
  TGI: > 90.3 µM
[43]
  TGI: > 100 µM
[44]
  TGI: > 100 µM
[45]
  TGI: 81.2 µM
[46]
  TGI: 75.3 µM
[47]
  TGI: 58.3 µM
[48]
  TGI: 65.4 µM
[49]
  TGI: > 78.8 µM
[50]
  TGI: > 88.6 µM
[51]
  TGI: > 90.4 µM
[52]
  TGI: 79.5 µM
[53]
  TGI: > 100 µM
[54]
  TGI: > 95.7 µM
[55]
  TGI: 72.1 µM
[56]
  TGI: > 100 µM
[57]
  TGI: > 100 µM
[58]
  TGI: 57 µM
